pKi: −log10 of the molar value. Where a SMILES comes first, the peptide text is derived from it. [ ]: non-standard residue; d: D form.

The text below walks through data of patent US6958221B2, “Cell flow apparatus and method for real-time measurements of patient cellular responses” (Caliper Life Sciences, Inc., priority 1996, dated 2005).

The target in the assay is T1, endothelin subtype A receptor ETAR (Homo sapiens, UniProt P25101).
T1 construct: TE-671 cells, human medulloblastoma (ATCC CRL 8805), naturally express endothelin subtype A receptor ETAR; host or cells: TE-671 human medulloblastoma cells
T1 sequence (P25101 21-427): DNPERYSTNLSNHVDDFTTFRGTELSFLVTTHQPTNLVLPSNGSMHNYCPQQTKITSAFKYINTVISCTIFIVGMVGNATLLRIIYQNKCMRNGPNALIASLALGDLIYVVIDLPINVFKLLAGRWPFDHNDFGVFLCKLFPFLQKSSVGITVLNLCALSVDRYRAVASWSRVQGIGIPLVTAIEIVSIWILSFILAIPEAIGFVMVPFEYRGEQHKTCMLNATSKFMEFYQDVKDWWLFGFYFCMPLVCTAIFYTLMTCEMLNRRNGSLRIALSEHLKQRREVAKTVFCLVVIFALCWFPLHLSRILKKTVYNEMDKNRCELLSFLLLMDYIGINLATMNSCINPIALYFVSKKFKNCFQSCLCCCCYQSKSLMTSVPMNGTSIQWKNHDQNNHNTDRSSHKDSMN
Description: ET-1 induced intracellular calcium mobilization in TE-671 cells (flow apparatus, FURA-2). Format: cell-based.
Description: TE-671 cells, human medulloblastoma (ATCC CRL 8805), naturally express endothelin subtype A receptor ETAR.
The apparatus was a negative pressure computer controlled unit as described above. This run was performed in the presence of several concentrations of ETAR specific competitive antagonist BQ-123 (shown in nanomolar concentration).
TE-671 cells were prepared for use in the cell physiometer of the present invention by growing them in a T75 flask until confluence. The growth media was decanted and the cells were washed twice with Dulbecco's phosphate buffered saline (DPBS) and supplemented with a fresh DPBS containing 2 μM FURA-2AM, which easily penetrates into cell cytoplasm and is hydrolyzed there with nonspecific esterases to form FURA 2, a dye which is sensitive to the ionized form of calcium. After 30 min incubation, the cells were supplemented with the equal volume of fresh DPBS and incubated for further 30 min. The cells, now loaded with the dye, were detached from the flask bottom with 0.05% Trypsin-EDTA solution. The cells were then washed twice with DPBS, containing 0.1% soybean trypsin inhibitor, and resuspended in calcium-free, magnesium-free and phenol red-free Dulbecco's modified Eagle's medium (DMEM).
This gives three fold final dilution for each component of the flow passing through mixing zone 343 and eventually, detector 355. The proportioning valve 327, was programmed for the first, second and third runs to give final BQ-123 concentration of zero, 10 nM and 40 nM, respectively.
The flow rate and the length of the reaction developing line were chosen so that the time interval from the point of mixing the cells with the compound to the point of signal detection in the flow-through optical cell was 40 seconds.

On to `CC(C)C[C@@H]1NC(=O)[C@@H](C(C)C)NC(=O)[C@@H]2CCCN2C(=O)[C@@H](CC(=O)O)NC(=O)[C@@H](Cc2c[nH]c3ccccc23)NC1=O` [BQ-123] (cyclo(L[dW][dD]P[dV])), for which the Kb was 11 nM. Besides, under “TE-671 cells, activation curves parallel shifted to the right in the presence of BQ-123”, the “type of inhibition (shift of ET-1 activation curves)” value is listed as “competitive type of inhibition”. Under “TE-671 cells, corresponds to the pA2 value, read-out: inhibition constant, K1”, the pKi was 7.96.
